Series [1] has as its system HUVEC. The experiment in a line: Anti-ferroptosis activity in HUVEC cells assessed as inhibition of erastin-induced ferroptosis by measuring lethality suppression at 10 uM incubated for 24 hrs by SRB assay. Type of series: functional, cell-based. Conditions: Homo sapiens. Background: In SRB staining, fixed cells bind dye roughly in proportion to their protein.
Series [2] deals with HUVEC. The series is described as follows: Anti-ferroptosis activity in HUVEC cells assessed as inhibition of erastin-induced ferroptosis by measuring lethality suppression incubated for 24 hrs by SRB assay. Type of series: functional, cell-based. The following applies: Homo sapiens.
The nature of series [3]: Solubility of compound in PBS buffer at pH 7.4 at 3.13 to 200 uM incubated for 2 hrs by turbidity based assay. Format: physicochemical. The following applies: dose 3.13-200 µM.
The nature of series [4]: Antioxidant activity assessed as DPPH radical scavenging activity incubated under dark condition for 30 mins by absorbance based analysis. Format: functional. In general terms: Loss of DPPH colour is used to gauge radical scavenging.
Series [5] is described as follows: Antioxidant activity assessed as DPPH radical scavenging activity at 50 uM incubated under dark condition for 30 mins by absorbance based analysis relative to control. Type of series: functional.
Series [6] concerns HUVEC. The experiment in a line: Anti-ferroptosis activity in erastin-induced HUVEC cells assessed as increase in GPX4 protein level at 10 uM incubated for 24 hrs by Western blot analysis. Conditions: Homo sapiens. Format: functional, cell-based. Background: Immunoblotting shows a protein as a band on a membrane.
Series [7] has as its system HUVEC. The series is described as follows: Anti-ferroptosis activity in erastin-induced HUVEC cells assessed as reduction in ROS level by measuring reduction in DCF fluorescence intensity at 10 uM incubated for 24 hrs by DCFH-DA fluorescent probe based fluorescence microscopic analysis. Format: functional, cell-based. The following applies: Homo sapiens.
Series [8] can be described thus: Metabolic stability in rat liver microsomes assessed as half life at […] incubated for 2 hrs in presence of NADPH by LC-MS/MS analysis. Type of series: ADME, Microsome.
Series [9] deals with HUVEC. The experiment in a line: Anti-ferroptosis activity in erastin-induced HUVEC cells assessed as reduction in mitochondrial impairment by measuring reduction in number of JC-1 monomers at 10 uM incubated for 24 hrs by JC-1 fluorescent probe based fluorescence microscopic analysis. The following applies: Homo sapiens. Type of series: functional, cell-based.
The subject of series [10] is HUVEC. The series is described as follows: Anti-ferroptosis activity in erastin-induced HUVEC cells assessed as reduction in malondialdehyde level at 10 uM incubated for 24 hrs. Type of series: functional, cell-based. The following applies: Homo sapiens.
Series [11] has as its system HUVEC. The experiment in a line: Anti-ferroptosis activity in erastin-induced HUVEC cells assessed as reduction in lipid peroxidation level at 10 uM incubated for 24 hrs. Format: functional, cell-based. The following applies: Homo sapiens.
The subject of series [12] is HUVEC. The experiment in a line: Anti-ferroptosis activity in erastin-induced HUVEC cells assessed as increase in GSH level at 10 uM incubated for 24 hrs. Format: functional, cell-based. The following applies: Homo sapiens.
Series [13] in a line: Metabolic stability in human liver microsomes assessed as half life at […] incubated for 2 hrs in presence of NADPH by LC-MS/MS analysis. Type of series: ADME, Microsome.
Series [14] has as its system HUVEC. The series is described as follows: Anti-ferroptosis activity in erastin-induced HUVEC cells assessed as reduction in cytoplasmic ferrous ion level at 10 uM incubated for 24 hrs by FerroOrange fluorescent probe based fluorescence microscopic analysis. Conditions: Homo sapiens. Type of series: functional, cell-based.

≈ marks a conversion by molar mass, not a printed value. Calls of active or inactive are those of the source. The rule behind the calls is not given here.

As to `CN1CCN(C(=O)c2ccc(NC3CCCCC3)c(NCc3ccccc3)c2)CC1`, in the series with HUVEC [1], the result was inactive.
One may read the EC50 as the concentration needed to bring the measured effect to its halfway point. As a reminder, the solubility (kinetic) is the concentration staying in solution when a stock, usually in DMSO, is diluted into the medium. For orientation: IC50 means the midpoint of a concentration-inhibition curve. In the case of `O=C(c1ccc(NC2CCCCC2)c(NCc2ccccc2)c1)N1CCN(Cc2ccc(-c3ccccc3)c(-c3ccccc3)c2)CC1`, in the series on HUVEC [2], the EC50 came out at 0.61 µM. This compound also yielded a solubility (kinetic) at 2 h in series [3] of 22.2 µM (≈ 14.1 µg/mL). For the same compound, the concentration for half-maximal inhibition (IC50) in series [4] was 42.9 µM. Further, the Activity in series [5] was determined as 54%.
Usually half-life stands for the time in which the quantity being followed falls by half. For the compound `CS(=O)(=O)c1ccc(CN2CCN(C(=O)c3ccc(NC4CCCCC4)c(NCc4ccccc4)c3)CC2)cc1`, the outcome with HUVEC [6], in the series on HUVEC [7], with HUVEC [9], in the series on HUVEC [10], in the series on HUVEC [11] and in the series on HUVEC [12] was Active. The outcome in the series on HUVEC [14] was Active. Besides, the concentration giving a half-maximal response (EC50) with HUVEC [2] was 0.5 µM. The values for the half-life in [8] and in [13] were 35.7 min and 50.2 min, respectively. Moreover, the kinetic solubility at 2 h in [3] is 28.6 µM (≈ 16 µg/mL). Also, the IC50 in series [4] was 28.9 µM. The Activity in series [5] was determined as 54%.
Turning to `CCOC(=O)c1ccc(NC2CCCCC2)c(N)c1`, the result in the series on HUVEC [6], in the series on HUVEC [7], with HUVEC [9], in the series on HUVEC [12] and with HUVEC [14] was Active. Also, the half-life was 18.4 min in [8] and 16.8 min in [13]. Besides, the kinetic solubility at 2 h in series [3] was > 200 µM. Further, the IC50 in series [4] turned out to be 54.3 µM. Besides, the Activity in series [5] came out at 52.5%.
`COc1ccc(Br)c(CN2CCN(C(=O)c3ccc(NC4CCCCC4)c(NCc4ccccc4)c3)CC2)c1`: in the series on HUVEC [2], the EC50 is 0.68 µM. The same compound returned a solubility (kinetic) at 2 h in [3] of 20 µM (≈ 11.8 µg/mL). Besides, the IC50 in [4] worked out at 41.3 µM. For the same compound, in series [5], the Activity was found to be 63.8%.
With `CCOC(=O)c1ccc(NC2CCCCC2)c(NCc2ccccc2)c1`, the solubility (kinetic) at 2 h in series [3] worked out at 6.2 µM (≈ 2.19 µg/mL). Further, the IC50 in [4] is 46.8 µM. For the same compound, in series [5], the Activity is 56.4%.
On to `O=C(c1ccc(NC2CCCCC2)c(NCc2ccccc2)c1)N1CCN(Cc2ccc(F)cc2Br)CC1`, for which, in the series on HUVEC [2], the EC50 was determined as 0.73 µM. Moreover, the kinetic solubility at 2 h in series [3] came to 28.6 µM (≈ 16.6 µg/mL). Also, the IC50 in [4] was found to be 60.8 µM. Further, in [5], the Activity amounted to 50.5%.
With `O=C(c1ccc(NC2CCCCC2)c(NCc2ccccc2)c1)N1CCN(Cc2ccncc2)CC1`, in the series with HUVEC [2], the EC50 stood at 0.79 µM. This compound registered a solubility (kinetic) at 2 h in series [3] of 20 µM (≈ 9.67 µg/mL). In addition, the IC50 in series [4] is 43.6 µM. Besides, in series [5], the Activity came to 55.4%.

The values are drawn from ChEMBL document CHEMBL5550119, “Design, synthesis, and evaluation of formylpiperazine analogs of Ferrostatin-1 as novel improved ferroptosis inhibitors” (Bioorg Med Chem, 2024).
